Data reported in publication PMC10840383, “Clinical features, functional consequences, and rescue pharmacology of missense GRID1 and GRID2 human variants” (Human Molecular Genetics, 2023).
Numbering of substitutions follows the chain as printed.

What was measured:
Assay type in all cases: cell-based
[1] = target: T1, GluD2-WT (Rattus norvegicus, UniProt Q63226); test: TEVC of constitutive current, Xenopus oocytes expressing GluD2-WT
T1 construct: expressed in transfected cells; host or cells: Xenopus laevis oocytes injected with cRNA
T1 sequence (Q63226 24-1007): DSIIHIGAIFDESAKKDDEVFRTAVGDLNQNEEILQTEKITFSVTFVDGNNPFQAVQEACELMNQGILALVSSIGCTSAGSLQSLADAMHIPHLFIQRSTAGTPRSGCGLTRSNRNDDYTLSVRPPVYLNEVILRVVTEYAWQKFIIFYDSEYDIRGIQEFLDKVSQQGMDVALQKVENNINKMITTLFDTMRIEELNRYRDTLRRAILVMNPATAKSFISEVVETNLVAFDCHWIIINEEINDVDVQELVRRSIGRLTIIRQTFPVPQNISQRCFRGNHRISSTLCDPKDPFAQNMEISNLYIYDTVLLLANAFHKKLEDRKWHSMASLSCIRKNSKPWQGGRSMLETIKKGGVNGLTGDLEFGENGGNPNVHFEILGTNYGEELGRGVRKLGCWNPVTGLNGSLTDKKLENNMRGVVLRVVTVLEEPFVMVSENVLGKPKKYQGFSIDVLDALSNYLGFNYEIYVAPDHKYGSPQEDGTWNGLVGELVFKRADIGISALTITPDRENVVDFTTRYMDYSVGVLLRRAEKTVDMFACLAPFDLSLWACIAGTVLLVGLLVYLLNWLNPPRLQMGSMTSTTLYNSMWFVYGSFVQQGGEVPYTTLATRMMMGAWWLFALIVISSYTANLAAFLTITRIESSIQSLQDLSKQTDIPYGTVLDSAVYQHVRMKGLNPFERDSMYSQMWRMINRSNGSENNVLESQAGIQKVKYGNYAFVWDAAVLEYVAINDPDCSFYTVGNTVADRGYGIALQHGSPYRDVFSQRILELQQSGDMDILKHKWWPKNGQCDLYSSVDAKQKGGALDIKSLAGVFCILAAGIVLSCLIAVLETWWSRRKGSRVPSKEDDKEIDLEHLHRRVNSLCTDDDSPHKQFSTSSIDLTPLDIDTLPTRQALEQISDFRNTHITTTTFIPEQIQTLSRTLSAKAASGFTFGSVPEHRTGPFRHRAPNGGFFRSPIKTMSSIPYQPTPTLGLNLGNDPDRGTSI

[2] = target: T2, GluD2-R710W (Rattus norvegicus, UniProt Q63226, R710W); test: TEVC of constitutive current, Xenopus oocytes expressing GluD2-R710W; settings: positive = increase, negative = decrease of activity
T2 construct: expressed in transfected cells; host or cells: Xenopus laevis oocytes injected with cRNA
T2 sequence (Q63226 24-1007 R710W): T1 sequence (Q63226 24-1007) with R687W

[3] = target: T3, GluD1-WT (Homo sapiens, UniProt Q9ULK0); test: TEVC of constitutive current, Xenopus oocytes expressing GluD1-WT; settings: positive = increase, negative = decrease of activity
T3 construct: expressed in transfected cells; host or cells: Xenopus laevis oocytes injected with cRNA
T3 sequence (Q9ULK0 21-1009): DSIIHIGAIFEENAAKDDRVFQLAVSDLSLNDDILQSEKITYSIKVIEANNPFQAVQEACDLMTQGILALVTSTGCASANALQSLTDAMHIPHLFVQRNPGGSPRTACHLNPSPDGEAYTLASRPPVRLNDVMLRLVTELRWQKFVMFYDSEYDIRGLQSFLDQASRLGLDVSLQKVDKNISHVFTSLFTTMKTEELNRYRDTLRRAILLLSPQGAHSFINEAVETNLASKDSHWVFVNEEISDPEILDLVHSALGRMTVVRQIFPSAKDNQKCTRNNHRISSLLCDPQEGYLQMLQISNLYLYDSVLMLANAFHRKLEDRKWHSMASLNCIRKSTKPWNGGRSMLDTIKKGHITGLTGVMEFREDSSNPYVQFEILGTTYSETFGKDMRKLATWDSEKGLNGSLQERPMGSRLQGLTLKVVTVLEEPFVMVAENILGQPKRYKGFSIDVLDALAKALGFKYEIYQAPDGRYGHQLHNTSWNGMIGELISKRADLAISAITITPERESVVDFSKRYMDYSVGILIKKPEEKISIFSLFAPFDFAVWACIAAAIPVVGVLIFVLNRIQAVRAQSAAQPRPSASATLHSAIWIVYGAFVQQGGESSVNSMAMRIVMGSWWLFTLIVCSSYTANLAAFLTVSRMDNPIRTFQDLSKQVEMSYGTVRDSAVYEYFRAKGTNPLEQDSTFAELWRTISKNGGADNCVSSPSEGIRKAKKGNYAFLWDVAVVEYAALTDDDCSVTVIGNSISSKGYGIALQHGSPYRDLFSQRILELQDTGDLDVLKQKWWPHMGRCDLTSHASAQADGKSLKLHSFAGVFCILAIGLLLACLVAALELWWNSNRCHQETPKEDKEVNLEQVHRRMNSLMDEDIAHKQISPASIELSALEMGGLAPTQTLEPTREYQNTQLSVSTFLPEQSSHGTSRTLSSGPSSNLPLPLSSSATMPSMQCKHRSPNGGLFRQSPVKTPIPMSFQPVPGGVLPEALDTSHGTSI

Effect on difference current, in words ([1]; 10 mM D-serine)	D-Serine effect (Baseline −10 mM D-Serine) ([1]; 10 mM D-serine, positive = increase, negative = decrease of activity)	D-Serine effect (Baseline −10 mM D-Serine) ([2]; 10 mM D-serine)	D-Serine effect (Baseline −10 mM D-Serine) ([3]; 10 mM D-serine)	Compound	Pentamidine effect (Baseline −100 μM Pentamidine) ([1]; 100 μM pentamidine, positive = increase, negative = decrease of activity)	Pentamidine effect (Baseline −100 μM Pentamidine) ([2]; 100 μM pentamidine)	Pentamidine effect (Baseline −100 μM Pentamidine) ([3]; 100 μM pentamidine)
minimal activity	−3.6 ± 1.0 (14) nA	−2.3 ± 0.60 (11) nA	2.3 ± 2.9 (13) nA	N[C@H](CO)C(=O)O [D-serine]	–	–	–
–	–	–	–	N=C(N)c1ccc(OCCCCCOc2ccc(C(=N)N)cc2)cc1 [Pentamidine, pentamidine]	3.6 ± 4.8 (14) nA	0.82 ± 1.9 (11) nA	37 ± 11 (14) nA
